Laboratory results published in ChEMBL document CHEMBL1151045, “Synthesis and evaluation of the anticonvulsant activity of a series of 2-amino-1-phenyl-1-propanols derived from the metabolites of the antidepressant bupropion” (1997).
Where “and” joins values, the source holds several entries; their conditions need not be identical. Identical values can stand only once. Calls of active or inactive are those of the source. The calls are words filed in the database; no cut-off is given here.

How the values were obtained:
Mus musculus [1] = test: Anticonvulsant activity measured in Maximal electroshock assay (MES), intraperitoneal administration; assay type: functional
Mus musculus [2] = test: Anticonvulsant activity of compound was tested in mice after intraperitoneal administration in Maximal electroshock assay (MES); Inactive at 40 mg/kg dose; assay type: functional, organism-based; set-up: dose 40 mg/kg
Mus musculus [3] = test: Anticonvulsant activity of compound was tested in mice after intraperitoneal administration in Maximal electroshock assay (MES); Inactive at 70 mg/kg dose; assay type: functional, organism-based; set-up: dose 70 mg/kg
Mus musculus [4] = test: Anticonvulsant activity of compound was tested in mice after intraperitoneal administration in Maximal electroshock assay (MES); Inactive at 60 mg/kg dose; assay type: functional, organism-based; set-up: dose 60 mg/kg
Mus musculus [5] = test: Anticonvulsant activity of compound was tested in mice after intraperitoneal administration in Maximal electroshock assay (MES); Inactive at 30 mg/kg dose; assay type: functional, organism-based; set-up: dose 30 mg/kg
Mus musculus [6] = test: Anticonvulsant activity of compound was tested in mice after intraperitoneal administration in Maximal electroshock assay (MES); Inactive at 13 mg/kg dose; assay type: functional, organism-based; set-up: dose 13 mg/kg
[7] = Mus musculus, ip, read-out: ED50

SMILES	ED50 (Mus musculus [1]; [7])	also measured
CCC(C)(C)N[C@H](C)[C@H](O)c1cccc(C(F)(F)F)c1	18 mg/kg	
CCC(C)(C)N[C@H](C)[C@H](O)c1cccc(Cl)c1	11 mg/kg	
CC(NC(C)(C)C)C(O)c1cccc(C(F)(F)F)c1 (racemic; form 1)		ED50 (Mus musculus [1]): 16 mg/kg
C[C@H](NC(C)(C)C)[C@H](O)c1ccc(Cl)c(Cl)c1	31 mg/kg	
CCC(C)(C)N[C@@H](C)[C@H](O)c1cccc(C(F)(F)F)c1	28 mg/kg	
CC(C)(C)NCC(O)c1cccc(Cl)c1 (centres undefined)	28 mg/kg	
C[C@H](NC(C)(C)C)[C@H](O)c1ccc(Cl)cc1	25 mg/kg	
C[C@@H](NC1CCCCC1)[C@H](O)c1cccc(Cl)c1	13 mg/kg	
Cc1ccc([C@@H](O)[C@H](C)NC(C)(C)C)cc1		ED50 (Mus musculus [2]): inactive
COc1ccc([C@@H](O)[C@H](C)NC(C)(C)C)cc1		ED50 (Mus musculus [3]): inactive
C[C@H](N)[C@H](O)c1cccc(Cl)c1		ED50 (Mus musculus [4]): inactive
CC[C@H](NC(C)(C)C)[C@H](O)c1cccc(Cl)c1	26 mg/kg	
C[C@@H](NC(C)(C)C)[C@H](O)c1cccc(Cl)c1 [ERYTHRO-HYDROBUPROPION]		ED50 (Mus musculus [1]): 11 mg/kg
O=C1NC(=O)C(c2ccccc2)(c2ccccc2)N1 [PHENYTOIN]	8.5 mg/kg	
Cc1ccc([C@@H](O)[C@@H](C)NC(C)(C)C)cc1	33 mg/kg	
C[C@@H](NC(C)(C)C)[C@H](O)c1ccccc1	14 mg/kg	
CC[C@H](NC(C)(C)C)[C@H](O)c1cccc(C(F)(F)F)c1	40 mg/kg	
C[C@@H](NC(C)(C)C)[C@H](O)c1ccc(Cl)c(Cl)c1	13 mg/kg	
C[C@H](NC(C)(C)C)[C@H](O)c1cccc([N+](=O)[O-])c1		ED50 (Mus musculus [2]): inactive
CC(NC(C)(C)C)C(O)c1cccc(C(F)(F)F)c1 (racemic; form 2)	25 mg/kg	

SMILES	ED50 (Mus musculus [1]; [7])	also measured
C[C@@H](NC(C)(C)C)[C@H](O)c1cccc([N+](=O)[O-])c1		ED50 (Mus musculus [2]): inactive
C[C@@H](NC(C)(C)C)[C@H](O)c1cccc(C(F)(F)F)c1		ED50 (Mus musculus [1]): 17 mg/kg and 22 mg/kg
CC(NC(C)(C)C)C(O)c1cccc(Cl)c1 (racemic; form 2) [ERYTHRO-HYDROBUPROPION]		ED50 (Mus musculus [1]): 26 mg/kg
CC(C)N[C@@H](C)[C@H](O)c1cccc(Cl)c1	20 mg/kg	
CCC[C@H](NC(C)(C)C)[C@H](O)c1cccc(Cl)c1	31 mg/kg	
CC(NC(C)(C)C)[C@H](O)c1ccccc1 (single isomer, unassigned)		ED50 (Mus musculus [1]): 25 mg/kg
CCC(C)N[C@H](C)[C@H](O)c1cccc(C(F)(F)F)c1 (some centres undefined)	31 mg/kg	
CCC(C)(C)N[C@@H](C)[C@H](O)c1cccc(Cl)c1	23 mg/kg	
CC[C@@H](NC(C)(C)C)[C@H](O)c1cccc(C(F)(F)F)c1	31 mg/kg	
C[C@@H](NC(C)(C)C)[C@H](O)c1ccc(Cl)cc1	29 mg/kg	
CC(C)N[C@H](C)[C@H](O)c1cccc(C(F)(F)F)c1	40 mg/kg	
C[C@@H](NC(C)(C)C)[C@H](O)c1cccc(Br)c1	11 mg/kg	
C[C@H](NC(C)(C)CO)[C@H](O)c1cccc(Cl)c1		ED50 (Mus musculus [5]): inactive
C[C@H](NC(C)(C)C)[C@H](O)c1cccc(Cl)c1 [ERYTHRO-HYDROBUPROPION]		ED50 (Mus musculus [1]): 28 mg/kg
CCCCN[C@H](C)[C@H](O)c1cccc(C(F)(F)F)c1		ED50 (Mus musculus [6]): inactive
CC(NC(C)(C)C)C(O)c1cccc(Cl)c1 (racemic; form 1) [ERYTHRO-HYDROBUPROPION]		ED50 (Mus musculus [1]): 14 mg/kg
C[C@H](NC(C)(C)C)[C@H](O)c1cccc(Br)c1	16 mg/kg	
CCC[C@H](NC(C)(C)C)[C@H](O)c1cccc(C(F)(F)F)c1	31 mg/kg	
CC[C@@H](NC(C)(C)C)[C@H](O)c1cccc(Cl)c1	15 mg/kg	
